Measured values from patent US6602914B2, “Compounds and methods for the inhibition of the expression of VCAM-1” (AtheroGenics, Inc., priority 1997, dated 2003).

What was measured:
[1] = test system: ApoB/HepG2; assay: Lipid Screen & IC50 Determination Protocol: ApoB ELISA of HEPG2 media; type: cell-based, human; conditions: HEPG2, 24 hours; for IC50: bare number = IC50, NE not defined in the patent, read-out: ApoB/HepG2 IC50 or % inhibition at [μM]: IC50
Experimental: HEPG2 cell was started in 10 ml of MEM, 10% FBS, 1 mM Sodium Pyruvate. The cells were incubated in a tissue culture incubator. The cells were split into 4×96-wells plate in MEM, 10% FBS, 1 mM Sodium Pyruvate and allowed to grow to about 50% confluency and then removed.
The cells were treated with the desired concentration of compounds in 100 μl DMEM, 1% RSA for 24 hours. The compounds are dissolved in DMSO.
On the same day, 4×96-wells NuncImmunoSorb plate is coated with 100 μl of mouse anti-human ApoB monoclonal 1D1 (1:1000 dilution in 1×PBS, pH 7.4). The coating is allowed overnight.
The coated plate is washed 3 times with 1×PBS, pH 7.4, −0.05% Tween 20. 100 μl of the standards is added to the selected wells. ApoB standards are prepared at 6.25, 3.12, 1.56, 0.78, 0.39 ng, and each concentration is done in triplicates. For samples:
90 μl of 1×PBS, pH 7.4, −0.05% Tween 20 is added to each well corresponding to the sample. 10 μl of media is transferred from the treated HEPG2 plates to the ApoB ELISA plate. The plate is incubated at room temperature for 2 hours, rocking gently.
Wash the coated plate 3× with 1×PBS, pH 7.4, −0.05% Tween 20. Add 100 μl of sheep anti-human ApoB polyclonal from Boehringer Mannheim. (1:2000 dilution in 1×PBS, pH 7.4, −0.05% Tween 20) from Boehringer Mannheim. Incubate at room temperature for 1 hour, rocking gently. Wash the coated plate 3× with 1×PBS, pH 7.4, −0.05% Tween 20. Add 100 μl of rabbit anti-sheep IgG (1:2000 dilution in 1×PBS, pH 7.4, −0.05% Tween 20). Incubate at room temperature for 1 hour, rocking gently. Wash the coated plate 3× with 1×PBS, pH 7.4, −0.05% Tween 20. Add 100 μl of substrate (10 ml of distilled water, 100 μl of TMB (10 mg/ml), and 1 μl of hydrogen peroxide). Allow color to emerge and stop reaction with 25 ul of 8N sulfuric acid. Wells are read with MicroPlate Reader @ […]. Graph accumulation of ApoB in media as a percentage of control for each sample and their concentration. A determination of IC50 is obtained from the graph.
The degree of inhibition of the compounds of formulas (I) and (II) was determined by the assays described in Examples 62-64.

[2] = test system: VCAM-1; assay: VCAM-1 Assay: TNF-stimulated cells, cell-surface ELISA; type: cell-based; conditions: for IC50: bare number = IC50, NE not defined in the patent, read-out: VCAM-1 IC50 or % inhibition at [μM]: IC50
Experimental: Two to four confluent P150 plates are trypsinized and the cells transferred to a 50 mL conical centrifuge tube. The cells are pelleted, resuspended, and counted using the trypan blue exclusion method.
Cells are resuspended at a concentration of 36,000 cells/mL and 1 mL is aliquoted per well.
Cells are split into 24 well tissue culture plates. The cells in each well should be approximately 90-95% confluent by the following day. Cells should not be older than passage 8.
Compounds are initially screened at 50 μM and 10 μM. A 50 mM stock solution for each compound is prepared in culture medium. The stock solution is diluted to 5 mM and 1 mM. When 10 μL of the 5 mM solution is added to the well (1 mL medium/well), the final concentration will be 50 μM. Adding 10 μL of the 1 mM solution to the well will give a final concentration of 10 μM.
Compounds which will not go into solution in culture medium are resuspended in DMSO at a concentration of 25 mM. The stock solution is then diluted to the final concentration in culture medium. The old medium is aspirated and 1 mL of the new medium with the compound is added. For example, if the final concentration is 50 μM, the 2 μL of the 25 mM stock is added per mL of culture medium. The […] solution is diluted for lower concentrations.
The compounds are added to the plate (each compound is done in duplicate). One plate is done for VCAM expression and one plate is done for ICAM expression.
Immediately after the compounds are added, TNF is added to each well. 100 units/mL TNF is usually added to each well. Since each lot of TNF varies in the number of units, each new lot is titrated to determine the optimum concentration. Therefore this concentration will change. If 100 units/mL is bing used, dilute the TNF to 10 units/μL and add 10 μL to each well.
The plates are incubated at 37° C., 5% CO2 overnight (approximately 16 hours). The next day the plates are checked under the microscope to see if there are any visual signs of toxicity. Records are made of any cell death, debris, or morphology changes, as well as insoluble compounds (particulate or turbity).
In order to assess MCP-1, the media (500 μL) is saved and frozen at −70° C. Wash cells once with roughly 1 ml/well of Hanks Balance Salt Solution (HBSS) or PBS. Gently empty the wash solution and then tap the plate onto paper towels. Add either 250 μL/well of HBSS +5% FCCS to the plank (no primary antibody wells) or 250 μL/well of primary antibody diluted in HBSS +5% FCS. Incubate for 30 minutes at 37° C. Wash the wells twice with 0.5 mL/well HBSS or PBS and gently tap the plates onto paper towels after the last wash. Add 250 μL/well of HRP-conjugated second antibody diluted in HBSS +5% FCS to every well including the blank wells (no primary antibody). Incubate at 37° C. for 30 minutes. Wash the wells four times with 0.5 mL/well HBSS or PBS and gently tap the plates onto paper towels after the last wash. Add 250 μL/well of substrate solution. Incubate at room temperature in the dark until there is adequate color development (blue). Note the length of time incubation was performed (typically 15-30 minutes). Add 75 μL/well stopper solution (8N sulfuric acid), and read A450 nm.

Question: For “1,2,3-Butanetriol, 4-[4-[[1-[[3,5-bis(1,1-dimethylethyl)-4-hydroxyphenyl]thio]=1-methylethyl]thio]-2,6-bis(1,1-dimethylethyl)phenoxy]-2-hydroxypropyl]-”, which “ApoB/HepG2 % inhibition at [μM]” value ([1]; at 1 μM) is on record?
Answer: Its value is 6% at 1.

Question: For “2,6-di-tert-butyl-4-thio(3′,5′-ditert-butyl,4′-hydroxy butanedioic acid ester)phenol”, which IC50 [2] is on record?
Answer: The IC50 was 6 µM.

Question: With CC(C)(Sc1cc(C(C)(C)C)c(O)c(C(C)(C)C)c1)Sc1cc(C(C)(C)C)c(OCC(O)CO)c(C(C)(C)C)c1 (stereo not shown) [1,2-Propanediol, 3-[4-[[1-[[3,5-bis(1,1-dimethylethyl)-4-hydroxyphenyl]thio]-1-methylethyl]thio]-2,6-bis(1,1-dimethylethyl)phenoxy]-] as the compound, how does the inhibition at 15 µM ([1]; Homo sapiens, at 15 μM) read?
Answer: Its inhibition at 15 µM is 40%.

Question: For COc1c(C(C)(C)C)cc(SCc2ccc(C(F)(F)F)cc2)cc1C(C)(C)C [2,6-di-tert-butyl-1-methoxy-4-thio(4′-trifluoromethyl)benzyl)benzene], which IC50 [1] is on record?
Answer: Its IC50 is under 10 µM.

Question: With CC(=O)OC(C)(C)CSc1cc(C(C)(C)C)c(O)c(C(C)(C)C)c1 [2,6-di-tert-butyl-4-thio(2′-acetoxy,2′-methylpropyl)phenol] as the compound, how does the IC50 [2] read?
Answer: Its IC50 is 50 µM.

Question: CN(C)CCCSc1cc(C(C)(C)C)c(O)c(C(C)(C)C)c1 [2,6-di-tert-butyl-4-thio(3′-(dimethylamino)propyl))phenol] was tested. Which “VCAM-1 % inhibition at [μM]” value ([2]; at 50 μM) did it give?
Answer: Its value is 30% at 50.

Question: Which IC50 [1] does the source give for CCCCC(OC(C)=O)Sc1cc(C(C)(C)C)c(O)c(C(C)(C)C)c1 (stereo not shown) [2,6-di-tert-butylthio((1′-(acetoxy))pentyl)phenol] here?
Answer: The IC50 was 30 µM.

Question: How did the inhibition at 15 µM ([1]; Homo sapiens, at 15 μM) turn out when CC(C)(Sc1cc(C(C)(C)C)c(O)c(C(C)(C)C)c1)Sc1cc(C(C)(C)C)c(OC(=O)c2ccc([N+](=O)[O-])o2)c(C(C)(C)C)c1 [2-Furancarboxylic acid, 5-nitro-, 4-[[1-[[3,5-bis(1,1-dimethylethyl)-4-hydroxyphenyl]thio]-1-methylethyl]thio]-2,6-bis(1,1-dimethylethyl)phenyl ester] was run?
Answer: Its inhibition at 15 µM is 17%.

Question: COc1c(C(C)(C)C)cc(SC(C)(C)Sc2cc(C(C)(C)C)c(OC(=O)CCC(=O)O)c(C(C)(C)C)c2)cc1C(C)(C)C [Butanedioic acid, mono[4-[[1-[[3,5-bis(1,1-dimethylethyl)-4-methoxyphenyl]thiol]1-methylethyl]thiol-2,6-bis(1,1-dimethylethyl)phenyl] ester] was tested. Which “ApoB/HepG2 % inhibition at [μM]” value ([1]; at 15 μM) did it give?
Answer: The value was 89% at 15.

Question: Which inhibition at 15 µM ([1]; Homo sapiens, at 15 μM) does the source give for CC(C)(Sc1cc(C(C)(C)C)c(O)c(C(C)(C)C)c1)Sc1cc(C(C)(C)C)c(OCCCC(=O)O)c(C(C)(C)C)c1 [Butanoic acid, 4-[4-[[1-[[3,5-bis(1,1-dimethylethyl)4-hydroxyphenyl]thio]-1-methylethyl]thio]-2,6-bis(1,1-dimethylethyl)phenoxy]-] here?
Answer: Its inhibition at 15 µM is 77%.

Question: For Cc1cc(SC(C)(C)Sc2cc(C(C)(C)C)c(O)c(C(C)(C)C)c2)cc(C)c1OCCCC(=O)O [Butanoic acid, 4-[4-[[1-[[3,5-bis(1,1-dimethylethyl)-4-hydroxyphenyl]thio]-1-methylethyl]thio]2,6-dimethylphenoxy]-], which inhibition at 15 µM ([1]; Homo sapiens, at 15 μM) is on record?
Answer: Its inhibition at 15 µM is 41%.

Question: With CC(C)(Sc1ccc(OCCCC(=O)O)cc1)Sc1cc(C(C)(C)C)c(O)c(C(C)(C)C)c1 [Butanoic acid, 4-[4-[[1-[[3,5-bis(1,1-dimethylethyl)-4-hydroxyphenyl]thio]-1-methylethyl]thio]phenoxy]-] as the compound, how does the inhibition at 15 µM ([1]; Homo sapiens, at 15 μM) read?
Answer: Its inhibition at 15 µM is 47%.

Question: With CC(C)(Sc1cc(C(C)(C)C)c(O)c(C(C)(C)C)c1)Sc1cc(C(C)(C)C)c(OC(=O)CCCO)c(C(C)(C)C)c1 [Butanoic acid, 4-hydorxy-, 4-[[1-[[3,5-bis(1,1-dimethylethyl)-4-hydroxyphenyl]thio]-1-methylethyl]thio]-2,6-bis(1,1-dimethylethyl)phenyl ester] as the compound, how does the “ApoB/HepG2 % inhibition at [μM]” value ([1]; at 15 μM) read?
Answer: The value was 81% at 15.

Question: For CC(C)(CO)CC(=O)Oc1c(C(C)(C)C)cc(SC(C)(C)Sc2cc(C(C)(C)C)c(O)c(C(C)(C)C)c2)cc1C(C)(C)C [Butanoic acid, 4-hydroxy-3,3-dimethyl-, 4-[[1-[[3,5-bis(1,1-dimethylethyl)-4-hydroxyphenyl]thio]-1-methylethyl]thio]-2,6-bis(1,1-dimethylethyl)phenyl ester], which inhibition at 15 µM ([1]; Homo sapiens, at 15 μM) is on record?
Answer: Its inhibition at 15 µM is 90%.

Question: For CC(C)(Sc1cc(C(C)(C)C)c(O)c(C(C)(C)C)c1)Sc1cc(C(C)(C)C)c(OCC(=O)N[C@@H](CCC(=O)O)C(=O)O)c(C(C)(C)C)c1 [Glutamic acid, N-[[4-[[1-[[3,5-bis(1,1-dimethylethyl)-4-hydroxyphenyl]thio]-1-methylethyl]thio]-2,6-bis(1,1-dimethylethyl)phenoxy]acetyl]-], which inhibition at 15 µM ([1]; Homo sapiens, at 15 μM) is on record?
Answer: The inhibition at 15 µM was 94%.

Question: With CC(C)(Sc1cc(C(C)(C)C)c(O)c(C(C)(C)C)c1)Sc1cc(C(C)(C)C)c(OC(=O)CN)c(C(C)(C)C)c1 [Glycine, 4-[[1-[[3,5-bis(1,1-dimethylethyl)-4-hydroxyphenyl]thio]-1-methylethyl]thio]-2,6-bis(1,1-dimethylethyl)phenyl ester] as the compound, how does the inhibition at 5 µM ([1]; Homo sapiens, at 5 μM) read?
Answer: Its inhibition at 5 µM is 30%.

Question: For CC(C)(Sc1cc(C(C)(C)C)c(O)c(C(C)(C)C)c1)Sc1cc(C(C)(C)C)c(OCC(O)CNCC(=O)O)c(C(C)(C)C)c1 (stereo not shown) [Glycine, N-[3-[4-[[1-[(3,5-bis(1,1-dimethylethyl)-4-hydroxyphenyl]thio]-1-methylethyl]thio]-2,6-bis(1,1-dimethylethyl)phenoxy]2-hydroxypropyl]-], which inhibition at 15 µM ([1]; Homo sapiens, at 15 μM) is on record?
Answer: Its inhibition at 15 µM is 45%.

Question: How did the “ApoB/HepG2 % inhibition at [μM]” value ([1]; at 15 μM) turn out when CC(C)(Sc1cc(C(C)(C)C)c(O)c(C(C)(C)C)c1)Sc1cc(C(C)(C)C)c(OCC(=O)NCC(=O)O)c(C(C)(C)C)c1 [Glycine, N-[[4-[[1-[[3,5-bis(1,1-dimethylethyl)-4-hydroxyphenyl]thio]-1,methylethyl]thio]-2,6-bis(1,1-dimethylethyl)phenoxylacetyl]-] was run?
Answer: The value was 83% at 15.

Question: Which “ApoB/HepG2 % inhibition at [μM]” value ([1]; at 15 μM) does the source give for CC(C)(Sc1cc(C(C)(C)C)c(O)c(C(C)(C)C)c1)Sc1cc(C(C)(C)C)c(OC(=O)CCC(=O)O)c(C(C)(C)C)c1.N=C(N)NCCC[C@H](N)C(=O)O [L-Arginine, mono[4-[[1-[[3,5-bis(1,1-dimethylethyl)-4-hydroxyphenyl]thio]-1-methylethyl]thio]-2,6-bis(1,1-dimethylethyl)phenyl butanedioate]] here?
Answer: Its value is 93% at 15.
